From patent publication US6881420B2 (Teva Pharmaceutical Industries Ltd., priority 2000, dated 2005)

Key:
[1] = Relative oral, non-gastric retention bioavailability of irinotecan and SN-38 derived from literature; assay type: in vivo; conditions: human, blood (bloodstream); oral non-gastric retention relative to intravenous; read-out: Calculated Relative Bioavailabilty of Lactone [formula]
From the text: Quantity “A” is the total area under the bloodstream concentration curve over time.
ATotal=ALactone+ACarboxylate is the sum of the areas under the curve of lactone and carboxylate forms of the species.

[2] = cited from earlier work
topoisomerase I = target: T1, topoisomerase I (Homo sapiens, UniProt P11387); conditions: cited from earlier work
T1 sequence (P11387 1-765): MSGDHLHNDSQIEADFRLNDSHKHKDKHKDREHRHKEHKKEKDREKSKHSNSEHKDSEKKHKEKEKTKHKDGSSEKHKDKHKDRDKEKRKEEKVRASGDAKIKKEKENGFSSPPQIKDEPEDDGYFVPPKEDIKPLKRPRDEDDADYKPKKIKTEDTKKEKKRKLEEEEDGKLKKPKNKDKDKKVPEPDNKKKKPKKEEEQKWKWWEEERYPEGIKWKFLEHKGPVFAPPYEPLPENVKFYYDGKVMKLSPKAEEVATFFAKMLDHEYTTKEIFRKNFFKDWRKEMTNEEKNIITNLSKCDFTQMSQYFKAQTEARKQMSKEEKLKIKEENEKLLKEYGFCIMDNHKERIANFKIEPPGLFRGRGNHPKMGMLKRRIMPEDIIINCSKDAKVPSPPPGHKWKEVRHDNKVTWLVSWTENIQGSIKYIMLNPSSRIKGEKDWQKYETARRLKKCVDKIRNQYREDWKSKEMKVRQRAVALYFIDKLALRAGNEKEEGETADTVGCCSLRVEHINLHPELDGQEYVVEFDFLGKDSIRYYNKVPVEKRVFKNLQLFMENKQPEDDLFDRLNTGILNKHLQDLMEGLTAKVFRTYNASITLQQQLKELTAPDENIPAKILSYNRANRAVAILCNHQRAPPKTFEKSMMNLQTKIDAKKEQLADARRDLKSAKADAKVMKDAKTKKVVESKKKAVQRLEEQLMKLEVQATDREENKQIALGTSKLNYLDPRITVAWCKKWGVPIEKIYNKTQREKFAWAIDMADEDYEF

[3] = Systemic delivery of irinotecan and SN-38 after GRDS tablet versus i.v. in the beagle dog; conditions: irinotecan in gastric retention dosage form, oral
Method: A plot of plasma concentration against time allows calculation of the area under the curves and the relative bioavailability of the various forms of the drug.
Prior to the study, an adequate amount (5-10 ml) of whole blood is drawn from each dog. The blood is used to prepare the standard calibration reference curve. At the study, the foreleg (right or left, as deemed appropriate by the animal handler), is shaved using an electric shaver, and the area cleansed with a chlorhexidine swab. A permanent in-dwelling polyethylene catheter is inserted using a 23 gauge needle in the cephalic vein in the foreleg of each dog and taped in place to allow for periodic blood sampling over 12 hours. […]
At each time point, 2.0 ml blood is removed by syringe and then placed into a pre-labeled heparinized test tube. […] The concentration of the components are measured using literature HPLC methods.
The dogs are fasted overnight for a period of at least 12 hours at which time they receive a single mixed meal of solid food and liquid nutrients. 250 grams of bite-size commercial dog chow (Bonzo Feed®) are measured and placed in a feeding dish. […] The food remaining in the dish is measured and the difference from the original 250 grams is recorded as the amount of food consumed. […]
Two hours after the meal, the dog is dosed with the test tablet. […] The methanol samples are analyzed by HPLC. […]

Structure (SMILES) | bioavailability [1] [%] | [formula] ratio of lactone AUC to total AUC, intravenous ([2]; irinotecan given intravenously) | [formula] overall delivery to the bloodstream, total AUC oral relative to intravenous ([2]; irinotecan given orally, conventional non-gastric retention, vs IV, lactone + carboxylate) | [formula] ratio absorbed in the lactone form (lactone AUC / total AUC), oral ([2]; irinotecan given orally, conventional non-gastric retention) | Potency as inhibitor of topoisomerase I relative to irinotecan (topoisomerase I) | Ratio absorbed in the lactone form [formula] [3] | Overall delivery to the bloodstream [formula], gastric retention relative to intravenous ([3]; vs IV)
CCc1c2c(nc3ccc(OC(=O)N4CCC(N5CCCCC5)CC4)cc13)-c1cc3c(c(=O)n1C2)COC(=O)[C@]3(O)CC [Irinotecan] | 12 | – | – | – | – | – | –
CCc1c2c(nc3ccc(O)cc13)-c1cc3c(c(=O)n1C2)COC(=O)[C@]3(O)CC [SN-38, 7-ethyl-10-hydroxycamptothecin] | – | 0.50 | 0.16 | 0.73 | approximately a thousand times more potent | 0.9 | 0.4
